Assay results published in patent US6809111B2, “Prodrugs of COX-2 inhibitors” (Pharmacia Corporation, priority 2001, dated 2004).

Legend:
[1] = tested on: carrageenan-induced inflammatory response in air pouch; assay: Air-pouch model of inflammation (carrageenan); format: in vivo; conditions: male Lewis rats
Experimental: Male Lewis rats (175-200 g) were used. Air cavities were produced by subcutaneous injection of 20 mL of sterile air into the intrascapular area of the back. An additional 10 mL of air was injected into the cavity every 3 days to keep the space open. Seven days after the initial air injection, 2 mL of a 1% solution of carrageenan (Sigma) dissolved in saline was injected directly into the pouch to produce an inflammatory response. The volume of exudate was measured […]. The differential cell count was determined by Wright-Giemsa staining. PGE2 and 6-keto-PGF1α were determined in the pouch exudates by specific ELISAs (Cayman Chemicals, Ann Arbor, Mich.).

Row | melting point | Structure (SMILES) | AIR POUCH TEST % Inhibition @ 20 mg/kg body weight [1]
1 | 57.8 °C | Cc1ccc(-c2cc(C(F)(F)F)nn2-c2ccc(S(=O)(=O)NCCO)cc2)cc1 [Example 3, N-(2-hydroxyethyl)-4-[5-(4-methylphenyl)-3-(trifluoromethyl)-1H1-pyrazol-1-yl]benzenesulfonamide] | 59%
2 | 79.1 °C | Cc1ccc(-c2cc(C(F)(F)F)nn2-c2ccc(S(=O)(=O)N(CCO)CCO)cc2)cc1 [Example 4, N,N-bis(2-hydroxyethyl)-4-[5-(4-methylphenyl)-3-(trifluoromethyl)-1H-pyrazol-1-yl]benzenesulfonamide] | 10%
